Measurements: patent US10092648B2, “Selective glucagon-like-peptide-2 (GLP-2) analogues” (Zealand Pharma A/S, priority 2006, dated 2018)
Where two headings read alike, the source gives them in different places.

Legend:
male C57BL mice [1] = assay: In vivo stimulation of intestinal growth, 800 nmol/kg (Example 10); set-up: key to Small intestine-colon sensitivity index: (SI/Colon) of compound divided by (SI/Colon) of reference GLP-2; details: 800 nmol/kg s.c. once daily for 3 days; for Sensitivity index Si/Colon / Sensitivity index Stomach/Co: relative to 1559; for Colon: colon mass relative to BW, % vs. [Gly2]GLP-2; for SI (% vs. [Gly2]GLP-2: small intestine mass relative to BW, [Gly2]GLP-2 = 100%
From the text: Individual groups (n=6-10) of mice were given 800 nmol/kg of each compound, s.c, once daily for three consecutive days. For comparison purposes other groups of animals were given either an equimolar dose of [[…]]GLP-2 (ZP1559) or vehicle (phosphate buffered saline, pH 7.4) in the same dosing regimen Twenty-four hours after the last dose of compound had been given the mice were sacrificed and the small intestine (from the pylorus to the cecum) and the colon (intestine distal to cecum) was emptied and weighed. To correct for slight difference in body weight (BW), the organ mass of the small intestine (SI) and colon were expressed relative to BW. The non-selective reference compound [[…]]GLP-2 has been reported to stimulate gastrointestinal growth in both esophagus, stomach, small intestine and colon and to evaluate differences in growth pattern induced by compounds, the small intestine-colon sensitivity index of compound X was calculated as: […]

male C57BL mice [2] = assay: In vivo stimulation of intestinal growth, 200 nmol/kg (Example 11); details: for Colon-BW, compared to 1559 in %: colon weight relative to body weight; for Colon-BW, compared to 1559 in % / SI-BW, compared to 1559 in %: relative to ZP1559; for Sensitivity index Si/Co: ratio SI-BW / Colon-BW; for SI-BW, compared to 1559 in %: small intestine weight relative to body weight
How it was run: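 Mice (n=6-10 per group) dosed s.c. at 200 nmol/kg once daily for three days; controls received equimolar [[MUT]]GLP-2 or PBS pH 7.4 vehicle.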

male C57BL mice [3] = assay: In vivo stimulation of stomach growth, 200 nmol/kg (Example 12); details: for Sensitivity index Stomach/Co: ratio Stomach-BW / Colon-BW; for Stomach-BW, compared to 1559 in %: stomach weight relative to body weight, relative to ZP1559
How it was run: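 Mice (n=6-10/group) received 200 nmol/kg s.c. once daily for 3 days, with PBS pH 7.4 vehicle and an equimolar GLP-2 comparator. Stomach/colon sensitivity index relative to GLP-2 was calculated, with ≥1.05 deemed stomach-selective.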

hGLP-2 receptor = target: T1, hGLP-2 receptor (Homo sapiens, UniProt O95838); assay: In vitro screening for agonism on the GLP-2 receptor recombinantly expressed in BHK-21 cells (CRE-luciferase reporter); format: cell-based
T1 construct: expressed in transfected cells; host or cells: BHK-21 (C13) cells, transient transfection with Lipofectamine 2000
T1 sequence (O95838 1-553): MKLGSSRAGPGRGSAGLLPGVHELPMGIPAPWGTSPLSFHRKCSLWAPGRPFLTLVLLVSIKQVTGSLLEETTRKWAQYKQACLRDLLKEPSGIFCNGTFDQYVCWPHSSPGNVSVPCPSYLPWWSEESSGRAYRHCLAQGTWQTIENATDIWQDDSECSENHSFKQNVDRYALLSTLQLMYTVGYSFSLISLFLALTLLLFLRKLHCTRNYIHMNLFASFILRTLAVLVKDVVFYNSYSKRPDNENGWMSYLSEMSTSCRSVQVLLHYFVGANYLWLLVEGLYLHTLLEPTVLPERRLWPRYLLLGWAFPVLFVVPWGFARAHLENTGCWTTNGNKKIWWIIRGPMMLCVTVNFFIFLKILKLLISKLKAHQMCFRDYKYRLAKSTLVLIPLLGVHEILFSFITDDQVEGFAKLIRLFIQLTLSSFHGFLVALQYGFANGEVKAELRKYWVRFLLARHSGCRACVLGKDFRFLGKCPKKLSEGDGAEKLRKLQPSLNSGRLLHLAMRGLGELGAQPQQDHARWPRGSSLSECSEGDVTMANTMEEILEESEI
Description: The screening was done using BHK21 cells transiently transfected with GLP-2 receptor and the CRE-luciferase reporter gene construct. Dose-response curves and EC50 values were determined using seven concentrations from 10 fM to 10 nM and triplicate points for each concentration. Control peptide was used on all test plates. BHK-21 cells are seeded in 10 cm TC-Petri dishes and grown to 70-80% confluency. Subsequently, medium is changed to serum-free transfection medium. DNA (7.5 μg hGLP-2 receptor vector and 7.5 μg CRE-luciferase vector) and Lipofectamine 2000 are diluted in OptiMEM, combined, and added to the cells after 20-30 min. Cells are incubated in the incubator at 37° C., 5% CO2 for 4 hr, trypsinized, and reseeded at 35,000 cells per well in 96-well plates. Cells are incubated overnight in full growth medium in order to allow expression of the transgenes. […] Baseline activity is controled with stimulation buffer alone. These solutions are pre-warmed to 37° C. for 30 min. Cells are rinsed with pre-warmed (37° C.) stimulation buffer, and incubated with 100 μl of the pre-warmed peptide dilutions and control for 5 hr at 37° C., 5% CO2. The LucLite enzyme substrate/lysis buffer is prepared shortly before the end of the incubation. 100 μl LucLite substrate are added to each well, and light emission is counted on a suitable counter (e.g. Wallac VictorII). EC50 values are derived from the raw data by fitting with a four parameter logistic equation (Microcal Origin 5.0 or GraphPad 4).

[4] = DPP IV degradation and renal clearance; Tavares et al. 2000; cited from earlier work

Substance	Colon-BW, compared to 1559 in % (male C57BL mice [1])	Preferential stimulation of epithelial growth in the small intestine (summary) (male C57BL mice [1])	SI-BW, compared to 1559 in % (male C57BL mice [1])	Sto-BW, compared to 1559 in % (male C57BL mice [1])	Sensitivity index Si/Colon (male C57BL mice [1])	Sensitivity index Stomach/Co (male C57BL mice [1])	Colon (male C57BL mice [1])	SI (% vs. [Gly2]GLP-2 (male C57BL mice [1])	Colon-BW, compared to 1559 in % (male C57BL mice [2])	Sensitivity index Si/Co (male C57BL mice [2])	SI-BW, compared to 1559 in % (male C57BL mice [2])	Sensitivity index Stomach/Co (male C57BL mice [3])	Stomach-BW, compared to 1559 in % (male C57BL mice [3])	EC50 (hGLP-2 receptor; BHK21 cells transiently transfected with GLP-2 receptor and CRE-luciferase, 10 fM to 10 nM, read-out: pEC50 (converted))	Small intestine-colon sensitivity index (male C57BL mice [1]; (SI/Colon)x/(SI/Colon)[Gly2]GLP-2)	EC50 (hGLP-2 receptor)	half life [4]
H-HGEGSFSDELATILESLAAADFISWLIATKITD-NH2 [ZP2272]	104.7%	preferentially stimulating epithelial growth in the small intestine	118.1%	96%	1.13	0.92	105 ± 6%	118 ± 2%	104.7%	1.13	118.1%	0.92	96%	5.37 pM	–	–	–
H-HGEGSFSDELATILEALAASDFISWLISTKITD-NH2 [ZP2268]	112.5%	preferentially stimulating epithelial growth in the small intestine	123.6%	87.4%	1.10	0.78	112 ± 4 %	124 ± 3 %	112.5%	1.10	123.6%	0.78	87.4%	–	1.10 ± 0.03	6.17 pM	–
H-His-Ala-Asp-Gly-Ser-Phe-Ser-Asp-Glu-Met-Asn-Thr-Ile-Leu-Asp-Asn-Leu-Ala-Ala-Arg-Asp-Phe-Ile-Asn-Trp-Leu-Ile-Gln-Thr-Lys-Ile-Thr-Asp-OH [GLP-2(1-33)]	–	–	–	–	–	–	–	–	–	–	–	–	–	–	–	–	about 7 minutes
